Source: US8735414B2 (priority 2009, dated 2014)

These molecules were tested on bicistronic HCV replicon (replicon RNA, GenBank Accession No. AJ242654) (assay: HCV Replicon Assay). Settings: Hepatitis C virus, 72 h, read-out: Replicon IC50.
Format: cell-based
With `C=CCc1cc2c(cc1F)c(C#N)c(-c1ccc(S(=O)(=O)N[C@@H](C)C(F)(F)F)cn1)n2-c1ncccn1` [compound 967, 6-[3-cyano-5-fluoro-6-(prop-2-en-1-yl)-1-(pyrimidin-2-yl)-1H-indol-2-yl]-N-[(2S)-1,1,1-trifluoropropan-2-yl]pyridine-3-sulfonamide] the IC50 was < 500 nM.
`C=CCc1cc2c(cc1F)c(Cl)c(-c1ccc(S(=O)(=O)N[C@@H](C)C(F)(F)F)cn1)n2-c1ncccn1` [compound 968, 6-[3-chloro-5-fluoro-6-(prop-2-en-1-yl)-1-(pyrimidin-2-yl)-1H-indol-2-yl]-N-[(2S)-1,1,1-trifluoropropan-2-yl]pyridine-3-sulfonamide] showed an IC50 of 500 to 2000 nM.
With `C=CCc1cc2c(cc1F)cc(-c1ccc(S(=O)(=O)N[C@@H](C)C(F)(F)F)cn1)n2-c1ncccn1` [compound 969, 6-[5-fluoro-6-(prop-2-en-1-yl)-1-(pyrimidin-2-yl)-1H-indol-2-yl]-N-[(2S)-1,1,1-trifluoropropan-2-yl]pyridine-3-sulfonamide] the IC50 was < 500 nM.
`C[C@H](NS(=O)(=O)c1ccc(-c2c(C#N)c3cc(F)c(CCO)cc3n2-c2ncccn2)nc1)C(F)(F)F` [compound 970, 6-[3-cyano-5-fluoro-6-(2-hydroxyethyl)-1-(pyrimidin-2-yl)-1H-indol-2-yl]-N-[(2S)-1,1,1-trifluoropropan-2-yl]pyridine-3-sulfonamide] was tested, and the IC50 was < 500 nM.
`Cc1cc2c(cc1F)c(Cl)c(-c1ccc(S(=O)(=O)N[C@@H](C)C(F)(F)F)cn1)n2-c1nncs1` [compound 972, 6-[3-chloro-5-fluoro-6-methyl-1-(1,3,4-thiadiazol-2-yl)-1H-indol-2-yl]-N-[(2S)-1,1,1-trifluoropropan-2-yl]pyridine-3-sulfonamide] showed an IC50 of 2000 to 5000 nM.
In the case of `COC(=O)c1cnc(-n2c(-c3ccc(S(=O)(=O)N[C@@H](C)C(F)(F)F)cn3)c(C#N)c3cc(F)c(C)cc32)s1` [compound 985, methyl 2-[3-cyano-5-fluoro-6-methyl-2-(5-{[(2S)-1,1,1-trifluoropropan-2-yl]sulfamoyl}pyridin-2-yl)-1H-indol-1-yl]-1,3-thiazole-5-carboxylate], the IC50 is reported as < 500 nM.
With `COC(=O)c1csc(-n2c(-c3ccc(S(=O)(=O)N[C@@H](C)C(F)(F)F)cn3)c(C#N)c3cc(F)c(C)cc32)n1` [compound 986, methyl 2-[3-cyano-5-fluoro-6-methyl-2-(5-{[(2S)-1,1,1-trifluoropropan-2-yl]sulfamoyl}pyridin-2-yl)-1H-indol-1-yl]-1,3-thiazole-4-carboxylate] the IC50 was < 500 nM.
With `Cc1cc2c(cc1F)cc(-c1ccc(S(=O)(=O)N[C@@H](C)C(F)(F)F)cn1)n2-c1ccsc1` [compound 987, 6-[5-fluoro-6-methyl-1-(thiophen-3-yl)-1H-indol-2-yl]-N-[(2S)-1,1,1-trifluoropropan-2-yl]pyridine-3-sulfonamide] the IC50 was < 500 nM.
`Cc1cc2c(cc1F)cc(-c1ccc(S(=O)(=O)N[C@@H](C)C(F)(F)F)cn1)n2-c1ccoc1` [compound 988, 6-[5-fluoro-1-(furan-3-yl)-6-methyl-1H-indol-2-yl]-N-[(2S)-1,1,1-trifluoropropan-2-yl]pyridine-3-sulfonamide] was tested, and the IC50 was < 500 nM.
With `Cc1cc2c(cc1F)cc(-c1ccc(S(=O)(=O)N[C@@H](C)C(F)(F)F)cn1)n2-c1cccs1` [compound 989, 6-[5-fluoro-6-methyl-1-(thiophen-2-yl)-1H-indol-2-yl]-N-[(2S)-1,1,1-trifluoropropan-2-yl]pyridine-3-sulfonamide] the IC50 was < 500 nM.
For `CCc1cc2c(cc1F)c(C#N)c(-c1ccc(S(=O)(=O)N[C@@H](C)C(F)(F)F)cn1)n2-c1ccc(C)cc1` [compound 1004, 6-[3-cyano-6-ethyl-5-fluoro-1-(4-methylphenyl)-1H-indol-2-yl]-N-[(2S)-1,1,1-trifluoropropan-2-yl]pyridine-3-sulfonamide], the IC50 was < 500 nM.
In the case of `CCc1cc2c(cc1F)c(C(N)=O)c(-c1ccc(S(=O)(=O)N[C@@H](C)C(F)(F)F)cn1)n2-c1cccc(C(F)(F)F)c1` [compound 1026, 6-ethyl-5-fluoro-1-[3-(trifluoromethyl)phenyl]-2-(5-{[(2S)-1,1,1-trifluoropropan-2-yl]sulfamoyl}pyridin-2-yl)-1H-indole-3-carboxamide], the IC50 is reported as 500 to 2000 nM.
Molecule `CCc1cc2c(cc1F)c(C(=O)O)c(-c1cnc(NS(=O)(=O)C(C)(C)C)nc1)n2C1CCCCC1` [compound 1029, 2-{2-[(tert-butylsulfonyl)amino]pyrimidin-5-yl}-1-cyclohexyl-6-ethyl-5-fluoro-1H-indole-3-carboxylic acid] has an IC50 of 2000 to 5000 nM.
In the case of `CCc1cc2c(cc1F)c(C(N)=O)c(-c1ccc(S(=O)(=O)N[C@@H](C)C(F)(F)F)cn1)n2-c1ccc(C)cn1` [compound 1039, 6-ethyl-5-fluoro-1-(5-methylpyridin-2-yl)-2-(5-{[(2S)-1,1,1-trifluoropropan-2-yl]sulfamoyl}pyridin-2-yl)-1H-indole-3-carboxamide], the IC50 is reported as 500 to 2000 nM.
For `CCc1cc2c(cc1F)c(C(N)=O)c(-c1ccc(S(=O)(=O)N[C@@H](C)C(F)(F)F)cn1)n2-c1cccnc1` [compound 1040, 6-ethyl-5-fluoro-1-(pyridin-3-yl)-2-(5-{[(2S)-1,1,1-trifluoropropan-2-yl]sulfamoyl}pyridin-2-yl)-1H-indole-3-carboxamide], the IC50 was < 500 nM.
`CCc1cc2c(cc1F)c(C(N)=O)c(-c1ccc(S(=O)(=O)N[C@@H](C)C(F)(F)F)cn1)n2-c1ccncn1` [compound 1041, 6-ethyl-5-fluoro-1-(pyrimidin-4-yl)-2-(5-{[(2S)-1,1,1-trifluoropropan-2-yl]sulfamoyl}pyridin-2-yl)-1H-indole-3-carboxamide] was tested, and the IC50 was < 500 nM.
In the case of `CCc1cc2c(cc1F)c(C(N)=O)c(-c1ccc(S(=O)(=O)N[C@@H](C)C(F)(F)F)cn1)n2-c1ncccc1Cl` [compound 1042, 1-(3-chloropyridin-2-yl)-6-ethyl-5-fluoro-2-(5-{[(2S)-1,1,1-trifluoropropan-2-yl]sulfamoyl}pyridin-2-yl)-1H-indole-3-carboxamide], the IC50 is reported as 500 to 2000 nM.
For `CCc1cc2c(cc1F)c(C(N)=O)c(-c1ccc(S(=O)(=O)N[C@@H](C)C(F)(F)F)cn1)n2-c1ccc(Cl)cn1` [compound 1043, 1-(5-chloropyridin-2-yl)-6-ethyl-5-fluoro-2-(5-{[(2S)-1,1,1-trifluoropropan-2-yl]sulfamoyl}pyridin-2-yl)-1H-indole-3-carboxamide], the IC50 was < 500 nM.
For `CCc1cc2c(cc1F)c(C(N)=O)c(-c1ccc(S(=O)(=O)N[C@@H](C)C(F)(F)F)cn1)n2-c1cncc(Cl)c1` [compound 1044, 1-(5-chloropyridin-3-yl)-6-ethyl-5-fluoro-2-(5-{[(2S)-1,1,1-trifluoropropan-2-yl]sulfamoyl}pyridin-2-yl)-1H-indole-3-carboxamide], the IC50 was < 500 nM.
For `Cc1cc2c(cc1F)cc(-c1ccc(S(=O)(=O)N[C@@H](C)C(F)(F)F)cn1)n2-c1ncco1` [compound 1059, 6-[5-fluoro-6-methyl-1-(1,3-oxazol-2-yl)-1H-indol-2-yl]-N-[(2S)-1,1,1-trifluoropropan-2-yl]pyridine-3-sulfonamide], the IC50 was < 500 nM.
In the case of `Cc1cc2c(cc1F)cc(-c1ccc(S(=O)(=O)N[C@@H](C)C(F)(F)F)cn1)n2-c1ccc(C#N)o1` [compound 1060, 6-[1-(5-cyanofuran-2-yl)-5-fluoro-6-methyl-1H-indol-2-yl]-N-[(2S)-1,1,1-trifluoropropan-2-yl]pyridine-3-sulfonamide], the IC50 is reported as 2000 to 5000 nM.
In the case of `CC(C)(C)S(=O)(=O)Nc1ccc(-c2c(C(=O)O)c3cc(F)c(OC(F)F)cc3n2C2CCCCC2)cn1` [compound 1064, 2-{6-[(tert-butylsulfonyl)amino]pyridin-3-yl}-1-cyclohexyl-6-(difluoromethoxy)-5-fluoro-1H-indole-3-carboxylic acid], the IC50 is reported as < 500 nM.
With `Cc1cc2c(cc1F)c(C#N)c(-c1ccc(S(=O)(=O)N[C@@H](C)C(F)(F)F)cn1)n2-c1ncco1` [compound 1073, 6-[3-cyano-5-fluoro-6-methyl-1-(1,3-oxazol-2-yl)-1H-indol-2-yl]-N-[(2S)-1,1,1-trifluoropropan-2-yl]pyridine-3-sulfonamide] the IC50 was < 500 nM.
With `CCc1cc2c(cc1F)c(C#N)c(-c1ccc(S(=O)(=O)N[C@@H](C)C(F)(F)F)cn1)n2-c1ccccc1F` [compound 1075, 6-[3-cyano-6-ethyl-5-fluoro-1-(2-fluorophenyl)-1H-indol-2-yl]-N-[(2S)-1,1,1-trifluoropropan-2-yl]pyridine-3-sulfonamide] the IC50 was < 500 nM.
With `[2H]C([2H])(C)c1cc2c(cc1F)c(C#N)c(-c1ccc(S(=O)(=O)N[C@@H](C)C(F)(F)F)cn1)n2-c1ncccn1` [compound 1078, 6-{3-cyano-6-[(1,1-dideuterium)ethyl]-5-fluoro-1-(pyrimidin-2-yl)-1H-indol-2-yl}-N-[(2S)-1,1,1-trifluoropropan-2-yl]pyridine-3-sulfonamide] the IC50 was < 500 nM.
In the case of `[2H]C([2H])(C)c1cc2c(cc1F)c(C#N)c(-c1ccc(S(=O)(=O)N[C@@]([2H])(C)C(F)(F)F)cn1)n2-c1ncccn1` [compound 1079, 6-{3-cyano-6-[(1,1-dideuterium)ethyl]-5-fluoro-1-(pyrimidin-2-yl)-1H-indol-2-yl}-N-[(2S)-1,1,1-trifluoro(2-deuterium)propan-2-yl]pyridine-3-sulfonamide], the IC50 is reported as < 500 nM.
Work on `C[C@@H](C1CC1)n1c(-c2ccc(NS(=O)(=O)C(C)(C)C)nc2)c(C(=O)O)c2cc(F)c(OC(F)F)cc21` [compound 1080, 2-{6-[(tert-butylsulfonyl)amino]pyridin-3-yl}-1-[(1S)-1-cyclopropylethyl]-6-(difluoromethoxy)-5-fluoro-1H-indole-3-carboxylic acid] yielded an IC50 of 500 to 2000 nM.
For `CCc1cc2c(cc1F)c(C#N)c(-c1ccc(NS(=O)(=O)C(C)(C)C)nc1)n2[C@@H](C)C1CC1` [compound 1082, N-(5-{3-cyano-1-[(1S)-1-cyclopropylethyl]-6-ethyl-5-fluoro-1H-indol-2-yl}pyridin-2-yl)-2-methylpropane-2-sulfonamide], the IC50 was < 500 nM.
With `C[C@H](C1CC1)n1c(-c2ccc(NS(=O)(=O)C(C)(C)C)nc2)c(C(=O)O)c2cc(F)c(OC(F)F)cc21` [compound 1084, 2-{6-[(tert-butylsulfonyl)amino]pyridin-3-yl}-1-[(1R)-1-cyclopropylethyl]-6-(difluoromethoxy)-5-fluoro-1H-indole-3-carboxylic acid] the IC50 was < 500 nM.
